Earlier results as cited in patent US20040005347A1, “Composition comprising cocoa” (N. V. NUTRICIA, priority 2001, published 2004).

Experiments:
[1] = system: PMS related symptoms; conditions: supplementation
[2] = system: serotonin levels; conditions: in vitro

[Mg+2] [Magnesium]
PMS related symptoms, especially those related to mood [1]: improves

Cn1c(=O)c2c(ncn2C)n(C)c1=O [caffeine]
serotonin levels [2]: increase
